Experimental data taken from patent US20140100183A1, “CENTRAL ADMINISTRATION OF STABLE FORMULATIONS OF THERAPEUTIC AGENTS FOR CNS CONDITIONS” (The Regents of the University of Colorado, a body corporate, priority 2006, published 2014).
Where “and” joins values, the source holds several entries; their conditions need not be identical. Equal values may be shown once. Read-outs that look alike come from different tables or passages of the source.

Experiments:
[1] = test system: patients diagnosed with epilepsy disorders; experiment: ICV or cisterna magna treatment of epilepsy (Example 6); format: in vivo, human; conditions: central administration, 0.01 to 0.1 mg per hour, 1 week
Source text: After 1 week of treatment, epileptic frequency is reduced.

[2] = test system: pentylenetetrazole (PTZ) seizure induction in rats; experiment: Pentylenetetrazole (PTZ) seizure induction model, ICV administration; format: in vivo, rat; conditions: for % Change: drug group vs vehicle group (-V); for Rodent ICV dose: effective daily dose, blocking seizures; for Efficacy: effective in blocking seizures
Procedure: Rats are anesthetized, placed in a stereotaxic instrument and a burr hole opened over one anterior lateral ventricle. A cannula is lowered to the ventricle and 5 μl of solution containing the drug is injected into the ventricle over 10 minutes. The incision is then closed and the animal allowed to regain consciousness and remain conscious for 10 minutes. After 10 minutes has elapsed, pentylenetetrazole (PTZ, 10 mg/ml in saline) is injected through a tail-vein catheter at a constant rate of infusion (1 ml/min, Razel syringe pump) until a motor seizure is induced. PTZ seizures are identified as myoclonic jerking followed by clonus and tonus. The time from the initial application of PTZ to the first clonic seizure (i.e., forelimb clonus) is measured and defined as “latency to seiqure onset”. The total amount of PTZ infused is calculated and then divided by each rat;s body weight to obtain the dose (mg/kg) of PTZ. The dose required to attain status epilepticus is compared to the PTZ dose without antiseizure medication.

[3] = test system: animals; experiment: Behavioral toxicology: openfield, elevated plus, ataxia; format: in vivo
Procedure: Several animal models as described below were used to determine the efficacy of formulations containing different concentrations of the drug. The animals were also tested for toxic effects as described in the table, below.
All animals are assessed for ataxia, which is a measure of altered gate and ability to change body position. They are also placed on their acks and time to “righting” measured.

[4] = qualitative, solvents as given in the source; cited from earlier work
[5] = test system: human; conditions: cited from earlier work
[6] = test system: sensory inhibition deficits in DBA/2 mice; experiment: Chronic ICV clozapine (7 day minipump), sensory inhibition; format: in vivo, mouse; conditions: 0.25 μl/hr for 7 days
Procedure: DBA/2 mice are implanted with a chronic indwelling cannula aimed at one anterior lateral ventricle (Alzet Brain Infusion system) which is connected to an osmotic minipump delivering 0.25 μl/hr for 7 days. On the 7th day, the mouse is anesthetized, placed in a stereotaxic instrument, a burr hole opened in the skull over the contralateral dorsal hippocampus and a recording electrode lowered to the CA3 region of the hippocampus. Evoked EEG responses to closely paired (0.5 msec apart) identical tones are recorded.

[7] = test system: primary mouse cortical neuron cultures; experiment: Toxicity in primary mouse cortical neuron cultures (MTT)
Procedure: In addition, a preliminary assessment of the toxicity of cyclodextrin in primary mouse cortical neuron cultures was performed. […] After dissection, and cellular dissociation, the cells were washed with Dulbecco's Modified Eagle's Medium with 10% fetal bovine serum. Following recentrifugation, the cells resuspended in plating medium, counted with trypan blue and plated at a constant density of 6.5×10^4 cells per well in a 96-well pre-coated plate. […] The cultures were maintained at 37° C. in a humidified atmosphere of 5% CO2. […] The cultures were incubated and cell toxicity assayed at 24, 48 and 72 hours. Viability was assessed by the MTT (3-(4,5 diethylthiazol-2-yl)-2,5)diphenyltetrazolium bromide) assay, CellTiter 96 Non-radioactive cell Proliferation Assay (Promega, Madison Wis.) and by visual examination.

[8] = test system: sensory inhibition deficits in DBA/2 mice; experiment: Sensory inhibition (paired auditory stimuli, TC ratio) after acute ICV administration; format: in vivo, mouse; conditions: for conditioning amplitude / test amplitude: vs baseline; for Rodent ICV dose: effective daily dose, mice
Procedure: The following methods were used to record the sensory inhibition.
The deficit in sensory inhibition can be quantified using the paired stimulus paradigm in which 2 identical stimuli are delivered 0.5 seconds apart and the electrophysiological response to each is recorded. In normal individuals, the response to the second, or test, stimulus, occurring 50 msec after stimulus onset, is reduced compared to the response to the first, or conditioning stimulus. However, schizophrenia patients have similar magnitude responses to both stimuli: The “TC ratio” is calculated by dividing the test amplitude by the conditioning amplitude. […] In normal individuals, the TC ratio is generally less than 0.4 while schizophrenia patients commonly have TC ratios above 0.5 and often approaching or exceeding 1.0.
In the present study, briefly, 5 baseline records were obtained in response to the paired auditory stimuli, prior to drug administration. […] Recordings were obtained at 5 minute intervals for 90 minutes post injection. Data analyzed included the amplitude of the response to the first stimulus (conditioning amplitude), amplitude of the response to the second stimulus (test amplitude) and the TC ratio (test amplitude/conditioning amplitude). This final parameter gives a measure of the level of inhibition in the circuit initiated by the conditioning stimulus. […] DBA/2 mice routinely have TC ratios of ≧0.8.

[9] = test system: prenatally stressed Sprague Dawley rats; experiment: Chronic ICV clozapine by osmotic minipump in schizophrenia model (Example 3); format: in vivo, rat
Procedure: After 1 week recovery from surgery, at least 10 baseline recording sessions are performed in which 30 pairs of identical auditory click stimuli are presented and the evoked potentials are recorded and averaged. This establishes the baseline parameters for sensory inhibition in the rats.
Formulations described above are administered into the ventricles using an osmotic minipump to deliver 0.5 μl/hr for 14 days. The rats have a chronic recording electrode implant that allows repeated awake recording over several days and a ventricular cannula to permit withdrawal of CSF. Sensory inhibition is recorded on alternate days for the 14 days of the pump duration. At the end of each recording session, blood and CSF are sampled under light anesthesia to assess levels of the active agent. Brain penetration and distribution are assessed using tritiated active agent/excipient complex in the osmotic minipump in a separate group of animals. […] A rat model of deficient sensory inhibition is used which allows us to sample both fluids repeatedly over several days.
Two days later, alternate day recording of sensory inhibition begins and continues for the full 14 days of the pump. […] Data are analyzed by analysis of variance and appropriate a posteriori analyses performed wherever significant differences are found (p<0.05).

[10] = test system: rats
Source text: At necropsy, blood is collected via cardiac puncture and placed in Na-EDTA anticoagulant or serum-separator tubes (SST). Anticoagulant blood is used to generate complete blood counts (CBCs). SST blood is spun down and serum collected to generate biochemical profiles CSF is collected via a cisterna magna puncture.
Tissues collected at necropsy for histopathology analysis include brain, skeletal muscle, eye, liver and kidney, and are preserved in 10% neutral-buffered formalin (5:1 formalin to tissue) for a minimum of 48 hours prior to processing. Tissues are processed for routine light microscopic analysis. Briefly, tissues are dehydrated, imbedded in wax, cut into 8 μm sections and mounted on slides, re-hydrated, and hematoxylin/eosin stained (H&E).
Biochemical and CBC values are pooled by treatment group and means compared to sham control group values using paired t-tests. Histopathology samples are assigned a point value based on the degree of necrosis, inflammatory cell infiltrate, and fibrosis. Scores for each are summed by group and compared to sham control tissues.
Tissues from euthanized animals are collected and drug levels quantitated as follows: Tissues are recovered, place in an Eppendorf tube and weighed. […] Digests are then mixed with scintillation fluid (Scinti-safe, Fisher Scientific, 50:50 v/v) and counts quantitated utilizing a Beckman model LS 6500 scintillation counter. […]

[11] = cited from earlier work
[12] = test system: schizophrenia patients; conditions: Iqbal et al. 2003; cited from earlier work
[13] = for prevention of precipitation on titration: even at very alkaline pH (≈11)
[14] = test system: anxiety in rats (elevated plus maze, open field); experiment: Elevated plus maze and open field conflicts test after ICV antidepressants; format: in vivo, rat; conditions: elevated plus maze and open field conflicts test
Procedure: Various antidepressants were injected via ICV, and animals monitored in standard elevated plus maze and open field conflicts test.
Rats are placed in the center of a pluz-shaped maze. The arms are 13 cm wide; two arms were open and two are enclosed by 32 cm high walls. The maze is elevated off the flor by 51 cm. The percent of time and distance traveled in each type of arm over the 4 minute test period is calculated by computer. Increased time and distance traveled in the open arms is thought to reflect anxiolytic activity.
Rats are place against 1 side of a 104 cm square box with 32 cm sides. The activity of the rat is monitored by computer over a 4 minute testing period. A computer divides the openfied space into 25 equal squares arranged into an outer:ring” of 16 squares, a middle region of 8 squares and a central square. The percent of time and distarnce traveled in the center square by rats receiving the drug are calculated and compared to rats receiving a saline control. Increased time and distance traveled in the center square is thought to reflect anxiolytic activity.

[15] = rodent ICV dose vs human oral equivalent
[16] = human dose is IV not oral for this drug

Which results are given for `NC(=O)OCC(COC(N)=O)c1ccccc1` [Felbamate, 2-phenyl-1,3-propanediol dicarbamate]?
alleviation of seizures [1]: efficacious therapeutic alleviation of seizures; % Change [2]: 60%; Rodent ICV dose [2]: 0.08242 mg/kg; Rodent ICV dose ([2]; listed as felbamate): about 0.08242 mg/kg; Efficacy [2]: effective in blocking; % of Oral dose [2, 15]: 0.4%; Highest non-toxic concentration ([3]; Behavioral: openfield, elevated plus, ataxia): 0.056 mg/mL; Comments: solubility [4]: Freely soluble in water and in alcohol; soluble in acetone; insoluble in ether and in benzene; Human oral equivalent ([5]; effective daily dose, oral): 20 mg/kg

Which “response to the second tone” value [6] does the source give for `CN1CCN(C2=Nc3cc(Cl)ccc3Nc3ccccc32)CC1` [Clozapine, 8-chloro-11-(4-methyl-1-piperazinyl)-5H-dibenzo [b,e][1,4] diazepine] here?
The value was “significant decreases in the response to the second tone”.

What about the Highest non-toxic concentration ([7]; In vitro primary cortical cell culture) of the same molecule?
Its Highest non-toxic concentration is 10 µg/mL.

What about the “final concentration at which significant toxicity was observed” value ([7]; clozapine formulated with cyclodextrin) of the same molecule?
Its value is ≥ 10 μg/mL and ≥ 30 μM.

What about the conditioning amplitude ([8]; 0.5 μg ICV) of the same molecule?
Its conditioning amplitude is “increases in conditioning amplitude, though the latter did not reach statistical significance”.

What about the test amplitude ([8]; 0.5 μg ICV) of the same molecule?
The test amplitude was “decreases in test amplitude”.

And the “time post injection with significantly reduced test amplitudes” value ([8]; 1.0 μg ICV)?
The value was 35 min.

What about the conditioning amplitude ([8]; 1.0 μg ICV) of the same molecule?
The conditioning amplitude was “significantly increased conditioning amplitudes”.

What about the test amplitude ([8]; 1.0 μg ICV) of the same molecule?
The test amplitude was “significantly reduced test amplitudes”.

And the Efficacy ([8]; acute effective dose for improvement of sensory inhibition deficits in mice)?
The Efficacy was “acute effective”.

What about the “Rodent ICV dose” value [8] of the same molecule?
Its value is 0.040 mg/kg.

And the “Rodent ICV dose” value ([8]; listed as clozapine)?
Its value is “about 0.040 mg/kg”.

What about the “% of Oral dose” value [8, 15] of the same molecule?
Its value is 0.5%.

And the “ICV dose lower than systemically administered dose” value ([8]; same mouse model, vs Simosky et al 2002)?
The value was > 1000 fold.

And the Highest non-toxic concentration ([3]; rat, in vivo)?
The Highest non-toxic concentration was 50 mg/mL.

And the plasma levels ([9]; 0.5 μl/hr for 14 days, steady state)?
Its plasma levels is “extremely low or not detectable”.

And the sensory inhibition ([9]; 14 days)?
The sensory inhibition was “improvement in sensory inhibition”.

And the “accumulation of drug in peripheral tissues and organs” value ([10]; chronic ICV versus intraperitoneal (IP))?
The value was “significantly less accumulation of drug in peripheral tissues and organs”.

And the “CNS pathology and systemic toxicity” value ([10]; rat, in vivo)?
Its value is “minimal or no CNS pathology and low systemic toxicity”.

And the partition coefficient ([11]; acidic conditions, pH 2)?
The partition coefficient was 0.4.

What about the Solubility in water [11] of the same molecule?
Its Solubility in water is “practically insoluble”.

And the octanol-to-water partition coefficient ([11]; pH 7.4 (Merck Index, 2004))?
The octanol-to-water partition coefficient was 1000.

What about the “patients who discontinue due to systemic side effects” value [12] of the same molecule?
Its value is 17%.

And the “pH until which addition of NaOH has little effect on solubility” value ([13]; acidified with HCl, no solubility enhancing agent)?
Its value is ~6.5.

And the “prevention of precipitation on titration” value ([13]; cyclodextrin)?
Its value is “prevented clozapine precipitation”.

What about the “pH up to which precipitation is inhibited” value ([13]; cyclodextrin-to-clozapine molar ratio of 2:1) of the same molecule?
Its value is ≤ 9.0.

And the “prevention of precipitation on titration” value ([13]; octyl glucoside)?
Its value is “prevented clozapine precipitation”.

What about the “prevention of precipitation on titration above neutral pH” value ([13]; polyethylene glycol (PEG 4000)) of the same molecule?
Its value is “not able to prevent clozapine precipitation”.

What about the “prevention of precipitation on titration above neutral pH” value ([13]; polyvinylpyrrolidone (PVP 10K)) of the same molecule?
Its value is “not able to prevent clozapine precipitation”.

What about the Human oral equivalent ([5]; effective daily dose, oral) of the same molecule?
The Human oral equivalent was 7.5 mg/kg.

For `Nc1ncnc2c1ncn2[C@@H]1O[C@H](CO)[C@@H](O)[C@H]1O` [Adenosine], which “% Change” value [2] is on record?
Its value is 90%.

What about the “Rodent ICV dose” value [2] of the same molecule?
Its value is 0.001336 mg/kg.

And the Efficacy [2]?
Its Efficacy is “effective in blocking”.

What about the “% of Oral dose” value [2, 16] of the same molecule?
Its value is 1.3%.

What about the Highest non-toxic concentration ([3]; rat, in vivo) of the same molecule?
The Highest non-toxic concentration was 0.0694 mg/mL.

And the “efficacy following ICV administration” value [14]?
Its value is “efficacy”.

And the Human oral equivalent [5, 16]?
The Human oral equivalent was 0.1 mg/kg.
